ChEMBL document CHEMBL1155017, “The use of natural product scaffolds as leads in the search for trypanothione reductase inhibitors” (Bioorg Med Chem, 2008)
pIC50, pKi: −log10 of the molar value. The source made the active and inactive calls. The rule behind the calls is not given here.

biological target: T1, Trypanothione reductase (Crithidia fasciculata, UniProt P39040); assay: Inhibition of Crithidia fasciculata free trypanothione reductase; details: not given
T1 sequence (P39040 whole entry): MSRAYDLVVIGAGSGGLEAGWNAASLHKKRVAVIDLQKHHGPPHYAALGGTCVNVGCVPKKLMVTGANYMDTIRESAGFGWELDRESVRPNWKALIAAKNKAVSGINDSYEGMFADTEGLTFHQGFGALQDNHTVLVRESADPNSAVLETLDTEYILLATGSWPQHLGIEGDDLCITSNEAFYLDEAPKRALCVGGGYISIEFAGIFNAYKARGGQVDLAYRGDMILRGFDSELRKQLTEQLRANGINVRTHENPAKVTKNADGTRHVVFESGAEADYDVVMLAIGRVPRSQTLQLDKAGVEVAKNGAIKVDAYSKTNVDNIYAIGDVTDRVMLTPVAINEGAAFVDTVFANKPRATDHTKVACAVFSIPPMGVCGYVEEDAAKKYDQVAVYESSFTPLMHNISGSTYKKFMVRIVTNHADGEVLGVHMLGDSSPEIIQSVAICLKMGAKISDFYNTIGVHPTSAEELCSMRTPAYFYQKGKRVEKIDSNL

Structure (SMILES)	pKi
O=C(CCc1ccc(O)c(O)c1)NCCCNCCCCNCCCNC(=O)CCc1ccc(O)c(O)c1 [KUKOAMINE A]	5.74

biological target: T1, Trypanothione reductase; assay: Inhibition of Crithidia fasciculata trypanothione reductase-substrate complex; details: not given

Structure (SMILES)	pKi
O=C(CCc1ccc(O)c(O)c1)NCCCNCCCCNCCCNC(=O)CCc1ccc(O)c(O)c1 [KUKOAMINE A]	4.89

biological target: Trypanothione reductase (Trypanosoma cruzi) (UniProt P28593); assay: (§1) Inhibition of Trypanosoma cruzi recombinant trypanothione reductase; details: not given
Sequence (P28593 whole entry, looked up): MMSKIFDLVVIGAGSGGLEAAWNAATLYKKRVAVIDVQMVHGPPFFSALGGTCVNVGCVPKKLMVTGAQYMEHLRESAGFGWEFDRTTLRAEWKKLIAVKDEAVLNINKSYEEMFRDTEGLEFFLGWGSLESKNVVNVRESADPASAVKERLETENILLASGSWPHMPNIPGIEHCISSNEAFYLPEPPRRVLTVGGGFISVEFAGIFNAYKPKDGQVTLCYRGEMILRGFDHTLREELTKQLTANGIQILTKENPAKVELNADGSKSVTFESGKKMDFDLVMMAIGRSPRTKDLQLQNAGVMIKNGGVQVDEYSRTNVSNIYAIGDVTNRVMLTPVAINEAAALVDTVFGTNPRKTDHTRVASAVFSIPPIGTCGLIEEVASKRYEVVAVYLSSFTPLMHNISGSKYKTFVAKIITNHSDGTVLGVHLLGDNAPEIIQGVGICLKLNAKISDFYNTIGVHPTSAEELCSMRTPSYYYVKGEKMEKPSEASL

Structure (SMILES)	Kinact
O=C1CC[C@]23/C=C/C(=O)NCCCCNCCCNC(=O)/C=C\c4ccc(c2c4)O[C@@H]3C1	0.116 min⁻¹

biological target: T2, Trypanothione reductase (Trypanosoma cruzi, UniProt P28593); assay: as §1; details: not given
T2 sequence (P28593 whole entry): as the sequence (P28593 whole entry, looked up) above

Structure (SMILES)	pKi	pIC50
COc1cc(CC2NCCc3c2[nH]c2ccccc32)ccc1O (centres undefined)	5.15	
O=C1CC[C@]23/C=C/C(=O)NCCCCNCCCNC(=O)/C=C\c4ccc(c2c4)O[C@@H]3C1	3.84	
CN(C)CCCn1c2c(c(=O)n(CCCN(C)C)c1=O)Nc1ccccc1S2	4.57	
COc1ccc2c3c(n(CCCN(C)C)c2c1)C(C)=NCC3	4.45	
N#Cc1ccc(C2NCCc3c2[nH]c2ccccc32)cc1 (centres undefined)	5.70	
CC[C@@]12CCCN3CC[C@]4(c5cccc(OC)c5N(C(C)=O)[C@@H]4CC1)[C@H]32 [ASPIDOSPERMINE]	4.19	4.04
COc1ccc2cc1Oc1ccc(cc1)C[C@H]1c3c(cc4c(c3Oc3cc5c(cc3OC)CCN(C)[C@@H]5C2)OCO4)CCN1C [CEPHARANTHINE]	5.12	
CN(C)CCCN1c2ccccc2Sc2ccc(Cl)cc21 [CHLORPROMAZINE]	5.49	5.24

biological target: Trypanothione reductase (Trypanosoma cruzi) (UniProt P28593); assay: Inhibition of Trypanosoma cruzi recombinant trypanothione reductase at 85 uM; details: not given

Structure (SMILES)	inhibition
C=CC1CN2CCC1CC2C(O)c1ccnc2ccccc12 (centres undefined)	18%
CN(C)CCCn1c2c(c(=O)n(CCCN(C)C)c1=O)Nc1ccccc1S2	62%
CC1=CC2c3cccc4[nH]cc(c34)C[C@H]2N(C)C1 (some centres undefined)	28%
COc1ccc2c3c(n(CCCN(C)C)c2c1)C(C)=NCC3	50%
CN(C)CCCn1c2ccccc2c2ccncc21	20%
CN(C)CCc1cn(C)c2ccc(O)cc12	9%
CN(C)Cc1cn(C)c2ccccc12	8%
COc1ccc(-c2cc(=O)c3c(O)cc(OC)cc3o2)cc1	12%
COc1ccc2c(c1)[nH]c1c(C)nccc12	11%
COc1ccc2c3ccnc(C)c3n(CCCN(C)C)c2c1	13%
C[C@@H]1CN(CCCn2c3ccccc3c3ccccc32)C[C@H](C)N1	4%
Cc1nccc2c1[nH]c1ccccc12	10%
Cc1nccc2c3ccccc3n(CCCN(C)C)c12	22%
O=C(/C=C/C=C/c1ccc2c(c1)OCO2)N1CCCCC1	11%
O=c1cc(-c2ccc(O)cc2)oc2cc(O)cc(O)c12	13%
c1ccc2c(c1)[nH]c1cnccc12	10%
CC[C@H]1[C@@H]2C[C@H]3[C@@H]4N(C)c5ccccc5[C@]45C[C@@H]([C@@H]2[C@H]5O)N3[C@@H]1O [AJMALINE]	12%
CC[C@@]12CCCN3CC[C@]4(c5cccc(OC)c5N(C(C)=O)[C@@H]4CC1)[C@H]32 [ASPIDOSPERMINE]	43%
COC(=O)NC1CCc2cc(OC)c(OC)c(OC)c2-c2ccc(OC)c(=O)cc21 (centres undefined) [COLCHININE]	8%
C[C@H]1[C@H]2CC[C@H]3[C@@H]4CC=C5C[C@@H](N(C)C)CC[C@]5(C)[C@H]4CC[C@]23CN1C [CONESSINE]	25%
COc1ccc2c3c([nH]c2c1)C(C)=NCC3 [HARMALINE]	19%
O=c1[nH]c2c(c(=O)[nH]1)CNc1ccccc1S2 [PYRIMIDOBENZOTHIAZEPINE]	10%
O=c1[nH]c2c(c(=O)[nH]1)Nc1ccccc1S2 [PYRIMIDOBENZOTHIAZINE]	36%

biological target: Trypanothione reductase (Trypanosoma cruzi) (UniProt P28593); assay: Inhibition of Trypanosoma cruzi recombinant trypanothione reductase at 12.2 uM; details: not given

Structure (SMILES)	inhibition
CN(C)CCCN1c2ccccc2Sc2ccc(Cl)cc21 [CHLORPROMAZINE]	70%

biological target: Trypanothione reductase (Trypanosoma cruzi) (UniProt P28593); assay: Inhibition of Trypanosoma cruzi recombinant trypanothione reductase at 200 uM; details: not given

Structure (SMILES)	inhibition
C[C@H]1[C@H]2CC[C@H]3[C@@H]4CC=C5C[C@@H](N(C)C)CC[C@]5(C)[C@H]4CC[C@]23CN1C [CONESSINE]	45%

biological target: Trypanothione reductase (Trypanosoma cruzi) (UniProt P28593); assay: Inhibition of Trypanosoma cruzi recombinant trypanothione reductase at 400 uM; details: not given

Structure (SMILES)	inhibition
C[C@H]1[C@H]2CC[C@H]3[C@@H]4CC=C5C[C@@H](N(C)C)CC[C@]5(C)[C@H]4CC[C@]23CN1C [CONESSINE]	73%

biological target: Trypanothione reductase (Trypanosoma cruzi) (UniProt P28593); assay: Inhibition of Trypanosoma cruzi recombinant trypanothione reductase at 800 uM; details: not given

Structure (SMILES)	inhibition
C[C@H]1[C@H]2CC[C@H]3[C@@H]4CC=C5C[C@@H](N(C)C)CC[C@]5(C)[C@H]4CC[C@]23CN1C [CONESSINE]	91%

biological target: T3, Glutathione reductase (Saccharomyces cerevisiae S288c) (UniProt P41921); assay: Inhibition of yeast glutathione reductase at 100 uM; details: not given
T3 sequence (whole entry): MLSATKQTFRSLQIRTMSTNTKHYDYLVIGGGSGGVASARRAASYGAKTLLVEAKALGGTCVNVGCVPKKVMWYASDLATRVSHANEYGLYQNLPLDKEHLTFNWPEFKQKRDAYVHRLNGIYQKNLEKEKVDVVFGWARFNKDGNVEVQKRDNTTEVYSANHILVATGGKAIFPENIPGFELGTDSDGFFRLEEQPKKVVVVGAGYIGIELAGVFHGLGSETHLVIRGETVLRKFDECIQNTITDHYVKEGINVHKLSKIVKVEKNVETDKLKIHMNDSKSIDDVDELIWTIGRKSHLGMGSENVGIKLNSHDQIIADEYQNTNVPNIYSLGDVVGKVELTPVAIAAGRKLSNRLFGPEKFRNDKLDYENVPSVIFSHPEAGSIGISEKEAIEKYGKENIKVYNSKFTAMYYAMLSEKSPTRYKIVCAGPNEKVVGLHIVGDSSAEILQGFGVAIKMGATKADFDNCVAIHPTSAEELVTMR

Structure (SMILES)	Activity	inhibition
CN(C)CCCn1c2c(c(=O)n(CCCN(C)C)c1=O)Nc1ccccc1S2	inactive	
COc1ccc2c3c(n(CCCN(C)C)c2c1)C(C)=NCC3		6%
CC[C@@]12CCCN3CC[C@]4(c5cccc(OC)c5N(C(C)=O)[C@@H]4CC1)[C@H]32 [ASPIDOSPERMINE]	inactive	

biological target: T3, Glutathione reductase (Saccharomyces cerevisiae S288c); assay: Inhibition of yeast glutathione reductase at 10 uM; details: not given

Structure (SMILES)	inhibition
CN(C)c1ccc2nc3ccc(=[N+](C)C)cc-3sc2c1	30%

tested on: Leishmania amazonensis; assay: Antileishmanial activity against Leishmania amazonensis MHOM/BR/76/LTB-012 promastigotes at 100 uM after 72 hrs by alamar blue assay; format: functional; details: MHOM/BR/76/LTB-012, 72 h, read-out: GI

Structure (SMILES)	inhibition of growth at 100 µM
C=CC1CN2CCC1CC2C(O)c1ccnc2ccccc12 (centres undefined)	51%
CN(C)CCCn1c2c(c(=O)n(CCCN(C)C)c1=O)Nc1ccccc1S2	11%
CC1=CC2c3cccc4[nH]cc(c34)C[C@H]2N(C)C1 (some centres undefined)	70%
COc1ccc2c3c(n(CCCN(C)C)c2c1)C(C)=NCC3	57%
CC[C@H]1[C@@H]2C[C@H]3[C@@H]4N(C)c5ccccc5[C@]45C[C@@H]([C@@H]2[C@H]5O)N3[C@@H]1O [AJMALINE]	5%
CC[C@@]12CCCN3CC[C@]4(c5cccc(OC)c5N(C(C)=O)[C@@H]4CC1)[C@H]32 [ASPIDOSPERMINE]	89%
COC(=O)NC1CCc2cc(OC)c(OC)c(OC)c2-c2ccc(OC)c(=O)cc21 (centres undefined) [COLCHININE]	6%
C[C@H]1[C@H]2CC[C@H]3[C@@H]4CC=C5C[C@@H](N(C)C)CC[C@]5(C)[C@H]4CC[C@]23CN1C [CONESSINE]	97%
N=C(N)c1ccc(OCCCCCOc2ccc(C(=N)N)cc2)cc1 [PENTAMIDINE]	86%
O=c1[nH]c2c(c(=O)[nH]1)CNc1ccccc1S2 [PYRIMIDOBENZOTHIAZEPINE]	14%
O=c1[nH]c2c(c(=O)[nH]1)Nc1ccccc1S2 [PYRIMIDOBENZOTHIAZINE]	15%

tested on: Leishmania infantum; assay: Antileishmanial activity against Leishmania infantum promastigotes; format: functional, organism-based; details: not given

Structure (SMILES)	pIC50
COc1ccc2c3c([nH]c2c1)C(C)=NCC3 [HARMALINE]	3.92

tested on: Leishmania amazonensis; assay: Antileishmanial activity against Leishmania amazonensis MHOM/BR/76/LTB-012 promastigotes after 72 hrs by alamar blue assay; format: functional, organism-based; details: MHOM/BR/76/LTB-012, 72 h

Structure (SMILES)	pIC50
N=C(N)c1ccc(OCCCCCOc2ccc(C(=N)N)cc2)cc1 [PENTAMIDINE]	6.54

biological target: T2, Trypanothione reductase; assay: Inhibition of Trypanosoma cruzi recombinant trypanothione reductase-substrate complex; details: not given

Structure (SMILES)	pKi
COc1ccc2cc1Oc1ccc(cc1)C[C@H]1c3c(cc4c(c3Oc3cc5c(cc3OC)CCN(C)[C@@H]5C2)OCO4)CCN1C [CEPHARANTHINE]	4.29

tested on: NIH3T3; assay: Cytotoxicity against mouse NIH3T3 cells; format: cell-based; details: not given

Structure (SMILES)	pIC50
CC[C@@]12CCCN3CC[C@]4(c5cccc(OC)c5N(C(C)=O)[C@@H]4CC1)[C@H]32 [ASPIDOSPERMINE]	4.34
